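Cells were grown in 96-well plates and exposed to each compound for 48 hours at five concentrations; endpoints were interpolated linearly between bracketing concentrations, or set to the highest concentration if not reached. Here, GI50 denotes the concentration required for 50% inhibition of growth.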 Calls of active or inactive are those of the source. Rule as the data show it: active = GI50 up to about 1.1 µM and inactive = higher.
Columns and labels:
Assay in all cases: inhibition of tumour cell growth, NCI panel, 48 h
DMS-273 = tested on: DMS-273
DLD-1 = tested on: DLD-1
KM-20L2 = tested on: KM-20L2
M19-MEL = tested on: M19-MEL
XF498 = tested on: XF498
HOP-18 = tested on: HOP-18
RXF 631 = tested on: RXF 631
DMS-114 = tested on: DMS-114

Measured: GI50

CN1CCn2c(Br)ccc2C1=O
inactive: DMS-273 > 100 µM | DLD-1 > 10 µM | KM-20L2 > 100 µM | M19-MEL > 100 µM | XF498 > 100 µM

O=[N+]([O-])c1cc(I)cc(/C=N/NS(=O)(=O)c2ccc(F)cc2)c1O
inactive: DMS-273 21.5 µM | DLD-1 36.5 µM | KM-20L2 29.8 µM | HOP-18 19.7 µM | RXF 631 23.7 µM | DMS-114 24.2 µM | M19-MEL 31.2 µM

Cc1c2n(c3ccccc13)CC1C2N(C)OC1(C)C (configuration not stated)
inactive: DMS-273 > 100 µM | DLD-1 > 100 µM | KM-20L2 > 100 µM | DMS-114 > 100 µM | M19-MEL > 100 µM | XF498 > 100 µM

Cc1nc2cc3nc4ccccc4c(O)c3cc2s1
inactive: DMS-273 > 100 µM | KM-20L2 > 100 µM | HOP-18 16.7 µM | DMS-114 > 100 µM | M19-MEL > 100 µM | XF498 > 100 µM

COC1C2C=CC(C2)[C@H]1[N+](=O)[O-] (some centres not stated)
inactive: DMS-273 > 100 µM | DLD-1 > 100 µM | KM-20L2 > 100 µM | RXF 631 > 100 µM | DMS-114 > 100 µM | M19-MEL > 100 µM

COc1cc(C(N)=O)c(OC)c(OC)c1OC
inactive: DMS-273 > 100 µM | DLD-1 > 100 µM | KM-20L2 > 100 µM | RXF 631 > 100 µM | DMS-114 > 100 µM | M19-MEL > 100 µM

CCC1C(=O)OCc2c1cc1n(c2=O)CCC12OCCO2 (configuration not stated)
inactive: DMS-273 > 100 µM | DLD-1 > 100 µM | KM-20L2 > 100 µM | DMS-114 > 100 µM | M19-MEL > 100 µM | XF498 > 100 µM

N#CC(C(=O)C(=O)NCCCNC(=O)C(=O)C(C#N)c1ccccc1)c1ccccc1 (configuration not stated)
inactive: DMS-273 > 100 µM | DLD-1 > 100 µM | KM-20L2 > 100 µM | HOP-18 > 100 µM | DMS-114 > 100 µM | M19-MEL > 100 µM

Cc1ccc(S(=O)(=O)C2c3nc4ccccc4cc3-c3nc4ccccc4nc32)cc1 (configuration not stated)
inactive: DMS-273 > 100 µM | DLD-1 > 100 µM | KM-20L2 > 100 µM | DMS-114 > 100 µM | M19-MEL > 100 µM | XF498 > 100 µM

Nc1c(S(=O)(=O)c2ccc(Cl)cc2)c2nc3ccccc3nc2n2ccnc12
inactive: DMS-273 82 µM | DLD-1 > 100 µM | HOP-18 22.8 µM | DMS-114 54 µM | M19-MEL > 100 µM | XF498 65.8 µM

CC(=O)OCC1OC(OC2C(CSC3OC(COC(C)=O)C(OC(C)=O)C(OC(C)=O)C3OC(C)=O)OC(OC(C)=O)C(OC(C)=O)C2OC(C)=O)C(OC(C)=O)C(OC(C)=O)C1OC(C)=O (configuration not stated)
inactive: DMS-273 > 100 µM | DLD-1 > 100 µM | KM-20L2 > 100 µM | DMS-114 > 100 µM | M19-MEL > 100 µM | XF498 > 100 µM

CC(=O)CCn1ncc(Cl)c(Cl)c1=O
inactive: DMS-273 17.7 µM | DLD-1 11.2 µM | KM-20L2 16.5 µM | HOP-18 16.6 µM | M19-MEL 4.92 µM | XF498 19.7 µM

From ChEMBL document CHEMBL1201862, “PubChem BioAssay data set” (2004)
